Assay results taken from ChEMBL document CHEMBL1157845, “Structure-activity relationship of new anti-tuberculosis agents derived from oxazoline and oxazole benzyl esters” (Eur J Med Chem, 2010).
Values after ≈ are worked out from the molar mass of the structure shown. Active and inactive are the calls of the source. No rule for the calls is given here.

Columns and labels:
[1] = test system: Mycobacterium tuberculosis; assay: Antimycobacterial activity against Mycobacterium tuberculosis Erdman infected in BALB/c mouse assessed as reduction of bacterial load at 200 mg/kg, po qd for 5 days per week administered 60 days after infection measured after 85 days post infection; type: functional, organism-based; set-up: dose 200 mg/kg
[2] = test system: Mycobacterium tuberculosis; assay: Antimycobacterial activity against Mycobacterium tuberculosis H37Rv ATCC 27294 in GAS medium after 1 week by microplate alamar blue assay; type: functional; conditions: H37Rv ATCC 27294, 168 h
[3] = test system: Mycobacterium tuberculosis; assay: Antimycobacterial activity against Mycobacterium tuberculosis H37Rv ATCC 27294 in GAST medium after 1 week by microplate alamar blue assay; type: functional; conditions: H37Rv ATCC 27294, 168 h

Compound | Activity [1] | MIC [2] | MIC [3]
O=C(OCc1ccccc1)c1coc(-c2cccnc2Sc2ccccc2)n1 | inactive | 8 µM (≈ 3.11 µg/mL) | > 128 µM
O=C(OCc1ccccc1)c1coc(-c2cccc(Br)c2)n1 | inactive | 1.93 µM (≈ 0.691 µg/mL) | 6.08 µM (≈ 2.18 µg/mL)
COC(=O)[C@@H]1COC(c2ccc([N+](=O)[O-])cc2)=N1 | inactive | > 128 µM | > 128 µM
O=C(OCc1ccccc1)[C@@H]1COC(c2ccccc2Cl)=N1 | inactive | 49.9 µM (≈ 15.8 µg/mL) | 15.2 µM (≈ 4.8 µg/mL)
CC(C)Oc1ccc(C2=N[C@H](C(=O)OCc3ccccc3)CO2)cc1 | inactive | 3.2 µM (≈ 1.09 µg/mL) | 14.9 µM (≈ 5.06 µg/mL)
O=C(OCc1ccccc1)c1coc(-c2cccnc2S(=O)(=O)c2ccccc2)n1 | inactive | 66.2 µM (≈ 27.8 µg/mL) | > 128 µM
O=C(OCc1ccccc1)c1coc(-c2ccc(Cl)c(F)c2)n1 | inactive | 2.87 µM (≈ 0.952 µg/mL) | 22.4 µM (≈ 7.43 µg/mL)
O=C(OCc1ccccc1)[C@@H]1COC(c2cnccn2)=N1 | inactive | 61.2 µM (≈ 17.3 µg/mL) | > 128 µM
CCCCOc1ccc(C2=N[C@H](C(=O)OCc3ccccc3)CO2)cc1 | inactive | 2.72 µM (≈ 0.961 µg/mL) | 5.11 µM (≈ 1.81 µg/mL)
COc1ccc(C2=N[C@H](C(=O)OCc3ccccc3)CO2)cc1OC | inactive | 39 µM (≈ 13.3 µg/mL) | 21.6 µM (≈ 7.37 µg/mL)
CCCOc1ccc(-c2nc(C(=O)OCc3ccccc3)co2)cc1 | inactive | 3.48 µM (≈ 1.17 µg/mL) | 1.94 µM (≈ 0.655 µg/mL)
CCOc1ccc(C2=N[C@H](C(=O)OCc3ccccc3)CO2)cc1F | inactive | 50.5 µM (≈ 17.3 µg/mL) | 3.91 µM (≈ 1.34 µg/mL)
N#Cc1cccc(-c2nc(C(=O)OCc3ccccc3)co2)c1 | inactive | 25.2 µM (≈ 7.67 µg/mL) | 60.5 µM (≈ 18.4 µg/mL)
COc1ccc(CC2=N[C@H](C(=O)OCc3ccccc3)CO2)cc1 | inactive | > 128 µM | > 128 µM
O=C(OCc1ccccc1)c1coc(-c2cnccn2)n1 | inactive | 7.32 µM (≈ 2.06 µg/mL) | 22.5 µM (≈ 6.33 µg/mL)
O=C(OCc1ccccc1)[C@@H]1COC(c2cccc(Br)c2)=N1 | inactive | 24.2 µM (≈ 8.72 µg/mL) | 52.5 µM (≈ 18.9 µg/mL)
COC(=O)[C@@H]1COC(c2ccccc2OCc2ccccc2)=N1 | inactive | 118 µM (≈ 36.7 µg/mL) | > 128 µM
O=C(O)[C@@H]1COC(c2ccccc2)=N1 | inactive | > 128 µM | > 128 µM
O=C(OCc1ccccc1)[C@@H]1COC(c2ccc(Cl)c(F)c2)=N1 | inactive | 52 µM (≈ 17.4 µg/mL) | 6.49 µM (≈ 2.17 µg/mL)
Cc1ccc(C2=N[C@H](C(=O)OCc3ccccc3)CO2)cn1 | inactive | 73 µM (≈ 21.6 µg/mL) | 122 µM (≈ 36.2 µg/mL)
COc1ccc(C2=N[C@H](C(=O)OCc3ccccc3)CO2)cc1Cl | inactive | 60.7 µM (≈ 21 µg/mL) | 7.58 µM (≈ 2.62 µg/mL)
COC(=O)[C@@H]1COC(c2ccccc2O)=N1 | inactive | > 128 µM | > 128 µM
COc1ccc(CNC(=O)c2coc(-c3cccc(Cl)c3)n2)cc1OC | inactive | 118 µM (≈ 44 µg/mL) | 48.1 µM (≈ 17.9 µg/mL)
Cc1ccc(-c2nc(C(=O)OCc3ccccc3)co2)cc1 | inactive | 12.8 µM (≈ 3.77 µg/mL) | 7.68 µM (≈ 2.25 µg/mL)
O=C(OCc1ccccc1)[C@@H]1COC(c2ccc(Br)nc2)=N1 | inactive | 22.9 µM (≈ 8.27 µg/mL) | 21.1 µM (≈ 7.62 µg/mL)
Cc1ccc(C2=N[C@H](C(=O)OCc3ccccc3)CO2)cc1 | inactive | 15.5 µM (≈ 4.58 µg/mL) | 27.3 µM (≈ 8.06 µg/mL)

Compound | Activity [1] | MIC [2] | MIC [3]
O=C(OCc1ccccc1)[C@@H]1COC(c2ccccn2)=N1 | inactive | 110 µM (≈ 31.1 µg/mL) | 127 µM (≈ 35.9 µg/mL)
O=C(OCc1ccccc1)[C@@H]1COC(c2ccc(Cl)cc2)=N1 | inactive | 61 µM (≈ 19.3 µg/mL) | 14.9 µM (≈ 4.7 µg/mL)
O=C(OCc1ccccc1)c1coc(-c2ccccc2P(=O)(c2ccccc2)c2ccccc2)n1 | inactive | 61.8 µM (≈ 29.6 µg/mL) | 61.5 µM (≈ 29.5 µg/mL)
O=C(OCc1ccccc1)c1coc(-c2ccc([N+](=O)[O-])cc2OCc2ccccc2)n1 | inactive | > 128 µM | > 128 µM
COc1ccccc1-c1nc(C(=O)OCc2ccccc2)co1 | inactive | 3.88 µM (≈ 1.2 µg/mL) | 7.54 µM (≈ 2.33 µg/mL)
O=C(OCc1ccccc1)[C@@H]1COC(c2cccnc2Oc2ccccc2)=N1 | inactive | 58.8 µM (≈ 22 µg/mL) | > 128 µM
CCCCOc1ccc(-c2nc(C(=O)OCc3ccccc3)co2)cc1 | inactive | 1.76 µM (≈ 0.618 µg/mL) | 3.83 µM (≈ 1.35 µg/mL)
O=C(OCc1ccccc1)c1coc(-c2cccnc2)n1 | inactive | 3.82 µM (≈ 1.07 µg/mL) | 6.2 µM (≈ 1.74 µg/mL)
C[C@@H]1OC(c2ccccc2)=N[C@@H]1C(=O)O | inactive | > 128 µM | > 128 µM
O=C(OCc1ccccc1)c1coc(-c2ccncc2)n1 | inactive | 1.42 µM (≈ 0.398 µg/mL) | 6.1 µM (≈ 1.71 µg/mL)
CCOc1ccc(C2=N[C@H](C(=O)OCc3ccccc3)CO2)cc1 | inactive | 60.6 µM (≈ 19.7 µg/mL) | 30.5 µM (≈ 9.92 µg/mL)
O=C(OCc1ccccc1)c1coc(-c2ccccn2)n1 | inactive | 2 µM (≈ 0.561 µg/mL) | 2.47 µM (≈ 0.692 µg/mL)
O=C(O)[C@@H]1COC(c2cccc(Cl)c2)=N1 | inactive | > 128 µM | 106 µM (≈ 23.9 µg/mL)
C[C@@H]1OC(c2ccccc2OCc2ccccc2)=N[C@@H]1C(=O)OCc1ccccc1 | inactive | > 128 µM | > 128 µM
O=C(OCc1ccccc1)[C@@H]1COC(c2ccncc2)=N1 | inactive | 55.6 µM (≈ 15.7 µg/mL) | 81.3 µM (≈ 23 µg/mL)
O=C(OCc1ccccc1)c1coc(-c2ccc([N+](=O)[O-])cc2)n1 | inactive | 1.79 µM (≈ 0.58 µg/mL) | 42.3 µM (≈ 13.7 µg/mL)
O=C(OCc1ccccc1)c1coc(-c2cccnc2Oc2ccccc2)n1 | inactive | 6.86 µM (≈ 2.55 µg/mL) | 91.4 µM (≈ 34 µg/mL)
O=C(OCc1ccccc1)[C@@H]1COC(c2cncc(-c3ccccc3)c2)=N1 | inactive | 12.5 µM (≈ 4.48 µg/mL) | 29.8 µM (≈ 10.7 µg/mL)
O=C(OCc1ccccc1)c1coc(-c2ccc(OCc3ccccc3)c(F)c2)n1 | inactive | 3.03 µM (≈ 1.22 µg/mL) | 3.86 µM (≈ 1.56 µg/mL)
O=C(OCc1ccccc1)[C@@H]1COC(c2ccc([N+](=O)[O-])cc2F)=N1 | inactive | 13 µM (≈ 4.48 µg/mL) | 8.7 µM (≈ 3 µg/mL)
COc1cccc(C2=N[C@H](C(=O)OCc3ccccc3)CO2)c1 | inactive | 24.8 µM (≈ 7.72 µg/mL) | 42.5 µM (≈ 13.2 µg/mL)
O=C(OCc1ccccc1)[C@@H]1COC(Cc2ccccc2)=N1 | inactive | > 128 µM | > 128 µM
O=C(OCc1ccccc1)[C@@H]1COC(c2cccnc2)=N1 | inactive | 53.3 µM (≈ 15 µg/mL) | 92.9 µM (≈ 26.2 µg/mL)
Cc1ccc(-c2nc(C(=O)OCc3ccccc3)co2)cn1 | inactive | 3.01 µM (≈ 0.886 µg/mL) | 10.2 µM (≈ 3 µg/mL)
COC(=O)[C@H]1N=C(c2ccccc2)O[C@H]1C | inactive | > 128 µM | > 128 µM
Cc1oc(-c2ccccc2O)nc1C(=O)O | inactive | > 128 µM | > 128 µM
